Source: US20110065787A1, “THERAPEUTIC AGENT FOR MALE STERILITY” (SBI ALApromo., Ltd., priority 2008, published 2011)
Entries after “also recorded” stand apart in the source; their conditions may differ.

Legend:
[1] = test system: healthy volunteers, married men; experiment: Subjective estimation of erectile effect in healthy volunteers (Example 3); assay type: in vivo, human
Description: 1 g of ALA hydrochloride was dissolved into 50 mL of 5% glucose aqueous solution (test solution), and administered to 7 healthy volunteers, married men from 28 to 44 years old. They ingested orally the test solution (13.9 to 22.2 mg/kg) without taking breakfast.

[2] = test system: male rats (Slc:Wistar); experiment: Crossing test: conception rate of copulated animals (Example 2); assay type: in vivo, rat
Description: Forty 10 week-old male rats (Slc:Wistar) and forty 9 week-old female rats were obtained, quarantined for 7 days, and were habituated and bred for 13 days. δ-amino levulinic acid (herein after referred to as ALA) phosphate was weighed, dissolved into injection solvent to prepare a 50 mg/mL solution.
After day 15 from administration of Example 1, crossing period was set as 14 days, and 1 female was housed per 1 male in the control group and in the 500 mg/kg-group.

[3] = test system: male rats (Slc:Wistar); experiment: Organ weights at autopsy of male rats after repeated oral administration (Example 1); settings: 500 mg/kg oral once a day, compared to the control group, FIG. 1
[4] = 1 g oral in 5% glucose solution (13.9 to 22.2 mg/kg), one line per volunteer 1-7, hydrochloride

SMILES: Cl.NCC(=O)CCC(=O)O [ALA hydrochloride, δ-amino levulinic acid hydrochloride]
- Note (sexual intercourse, pregnancy) [1, 4]: pregnant; also recorded: No sexual intercourse; also recorded: No sexual intercourse,
- Result (erectile, individual subjective estimation) [1, 4]: Δ (when no change is observed by (Δ))
- volunteers in whom erectile was observed on that night ([1]; 1 g oral, 7 healthy volunteers): 5 out of 7
- volunteers who had sexual intercourse, and pregnancy was confirmed ([1]; 1 g oral, among the volunteers with erectile): 2

SMILES: NCC(=O)CCC(=O)O.O=P(O)(O)O [ALA phosphate, δ-amino levulinic acid phosphate]
- conception succeeded (number of rats) ([2]; 500 mg/kg-group, control 16 out of 20): 17 out of 19
- conception rate of copulated animals ([2]; male rats 500 mg/kg oral once a day, crossing period 14 days after day 15, control group 80.0%): 94.4%
- net weight of seminal vesicle [3]: significant high level
- weight volume ratio to the body weight of seminal vesicle [3]: significant high level
